From PubChem BioAssay AID248 (DTP/NCI, 2004)
Values joined by “and” are separate entries in the source; they are usually repeats but may differ in a detail not shown here. Equal values may be shown once. Toxic doses and inconclusive results are not listed. No stated cut-off is given here; in the data, active means T/C of 150% or more; inactive means T/C below 125%.

System: L1210 leukemia ip in BDF1 mice, survival T/C
Experiment: NCI In Vivo Anticancer Drug Screen. Data for tumor model L1210 Leukemia (intraperitoneal) in B6D2F1 (BDF1) mice
Conditions: endpoint: mean survival time, higher = longer survival
In short: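 Antitumor effect is assessed in tumor-bearing animals. Survival in the compound arm is compared with a vehicle-dosed control arm and expressed as their quotient.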

[1] = dose: 100.0 mg/kg/injection, schedule: Q01DX001 (ip), vehicle: other
[2] = dose: 200.0 mg/kg/injection, schedule: Q01DX001 (ip), vehicle: other
[3] = dose: 400.0 mg/kg/injection, schedule: Q01DX001 (ip), vehicle: other
[4] = dose: 50.0 mg/kg/injection, schedule: Q01DX001 (ip), vehicle: saline
[5] = dose: 100.0 mg/kg/injection, schedule: Q01DX001 (ip), vehicle: saline
[6] = dose: 100.0 mg/kg/injection, schedule: Q04DX003 (ip), vehicle: saline
[7] = dose: 100.0 mg/kg/injection, schedule: Q01DX009 (ip), vehicle: Klucel (hydroxypropylcellulose) (HPC)
[8] = dose: 200.0 mg/kg/injection, schedule: Q01DX009 (ip), vehicle: Klucel (hydroxypropylcellulose) (HPC)
[9] = dose: 400.0 mg/kg/injection, schedule: Q01DX009 (ip), vehicle: Klucel (hydroxypropylcellulose) (HPC)
[10] = dose: 100.0 mg/kg/injection, schedule: Q04DX003 (ip), vehicle: saline with Tween-80
[11] = dose: 200.0 mg/kg/injection, schedule: Q04DX003 (ip), vehicle: saline with Tween-80
[12] = dose: 400.0 mg/kg/injection, schedule: Q04DX003 (ip), vehicle: saline with Tween-80
[13] = dose: 100.0 mg/kg/injection, schedule: Q04DX003 (ip), vehicle: Klucel (hydroxypropylcellulose) (HPC)
[14] = dose: 200.0 mg/kg/injection, schedule: Q04DX003 (ip), vehicle: Klucel (hydroxypropylcellulose) (HPC)
[15] = dose: 400.0 mg/kg/injection, schedule: Q04DX003 (ip), vehicle: Klucel (hydroxypropylcellulose) (HPC)
[16] = dose: 100.0 mg/kg/injection, schedule: Q04DX002 (ip), vehicle: saline with Tween-80
[17] = dose: 200.0 mg/kg/injection, schedule: Q04DX002 (ip), vehicle: saline with Tween-80
[18] = dose: 400.0 mg/kg/injection, schedule: Q04DX002 (ip), vehicle: saline with Tween-80
[19] = dose: 100.0 mg/kg/injection, schedule: Q04DX002 (ip), vehicle: Klucel (hydroxypropylcellulose) (HPC)
[20] = dose: 200.0 mg/kg/injection, schedule: Q04DX002 (ip), vehicle: Klucel (hydroxypropylcellulose) (HPC)
[21] = dose: 400.0 mg/kg/injection, schedule: Q04DX002 (ip), vehicle: Klucel (hydroxypropylcellulose) (HPC)

Measured: T/C

Nc1ccc(N=Nc2cc(Cl)ccc2Cl)c(N)n1
inactive: dose: 50.0 mg/kg/injection, schedule: Q01DX001 (ip), vehicle: other 103 % of control | [1] 86 % of control | [2] 92 % of control | [3] 92 % of control

ClC12CC3CC(CC(C3)C1)C2
inactive: dose: 100.0 mg/kg/injection, schedule: Q01DX009 (ip), vehicle: acetone 92 % of control | dose: 100.0 mg/kg/injection, schedule: Q04DX003 (ip), vehicle: acetone 91 % of control | dose: 200.0 mg/kg/injection, schedule: Q01DX009 (ip), vehicle: acetone 95 % of control and 91 % of control | dose: 200.0 mg/kg/injection, schedule: Q04DX003 (ip), vehicle: acetone 98 % of control | dose: 400.0 mg/kg/injection, schedule: Q01DX009 (ip), vehicle: acetone 93 % of control | dose: 400.0 mg/kg/injection, schedule: Q04DX003 (ip), vehicle: acetone 88 % of control

COC(=O)C1=C(O)CN(C)C1=O
inactive: dose: 12.5 mg/kg/injection, schedule: Q01DX001 (ip), vehicle: saline 98 % of control | dose: 25.0 mg/kg/injection, schedule: Q01DX001 (ip), vehicle: saline 93 % of control | dose: 25.0 mg/kg/injection, schedule: Q01DX009 (ip), vehicle: saline 101 % of control | [4] 91 % of control | dose: 50.0 mg/kg/injection, schedule: Q01DX009 (ip), vehicle: saline 103 % of control | [5] 86 % of control | dose: 100.0 mg/kg/injection, schedule: Q01DX009 (ip), vehicle: saline 96 % of control | dose: 150.0 mg/kg/injection, schedule: Q01DX009 (ip), vehicle: saline 94 % of control

O=C(O)CC1(C(=O)O)CC2C=CC1C2 (stereo not drawn)
inactive: dose: 100.0 mg/kg/injection, schedule: Q01DX001 (ip), vehicle: carboxymethylcellulose (CMC) 97 % of control and 105 % of control | dose: 100.0 mg/kg/injection, schedule: Q04DX002 (ip), vehicle: carboxymethylcellulose (CMC) 97 % of control and 98 % of control | dose: 100.0 mg/kg/injection, schedule: Q04DX003 (ip), vehicle: carboxymethylcellulose (CMC) 95 % of control and 97 % of control | dose: 200.0 mg/kg/injection, schedule: Q01DX001 (ip), vehicle: carboxymethylcellulose (CMC) 97 % of control and 91 % of control | dose: 200.0 mg/kg/injection, schedule: Q04DX002 (ip), vehicle: carboxymethylcellulose (CMC) 97 % of control and 90 % of control | dose: 200.0 mg/kg/injection, schedule: Q04DX003 (ip), vehicle: carboxymethylcellulose (CMC) 97 % of control and 87 % of control | dose: 400.0 mg/kg/injection, schedule: Q01DX001 (ip), vehicle: carboxymethylcellulose (CMC) 99 % of control and 103 % of control | dose: 400.0 mg/kg/injection, schedule: Q04DX002 (ip), vehicle: carboxymethylcellulose (CMC) 87 % of control and 90 % of control | dose: 400.0 mg/kg/injection, schedule: Q04DX003 (ip), vehicle: carboxymethylcellulose (CMC) 94 % of control and 90 % of control

OC1CCCC2CCC[N-]C12.OC1CCCC2CCC[N-]C12.[O]=[V][OH] (stereo not drawn)
inactive: dose: 24.0 mg/kg/injection, schedule: Q01DX015 (ip), vehicle: carboxymethylcellulose (CMC) 105 % of control | dose: 25.0 mg/kg/injection, schedule: Q04DX003 (ip), vehicle: saline 93 % of control | dose: 36.0 mg/kg/injection, schedule: Q01DX015 (ip), vehicle: carboxymethylcellulose (CMC) 105 % of control | [4] 100 % of control | dose: 50.0 mg/kg/injection, schedule: Q04DX003 (ip), vehicle: saline 93 % of control | dose: 54.0 mg/kg/injection, schedule: Q01DX015 (ip), vehicle: carboxymethylcellulose (CMC) 102 % of control | [6] 95 % of control

CN(C)C(=O)Sc1ccc(Cl)cc1S(=O)(=O)F
inactive: [7] 97 % of control | [8] 100 % of control | [9] 89 % of control

CCCCN(CCCC)CC(O)c1cnc2c(Cl)cc(Cl)cc2c1Cl (stereo not drawn)
inactive: dose: 100.0 mg/kg/injection, schedule: Q01DX009 (ip), vehicle: saline with Tween-80 101 % of control | [10] 100 % of control | dose: 200.0 mg/kg/injection, schedule: Q01DX009 (ip), vehicle: saline with Tween-80 102 % of control | [11] 102 % of control | [12] 108 % of control

Clc1ccc(-c2cc[s+]s2)cc1
inactive: dose: 12.5 mg/kg/injection, schedule: Q01DX009 (ip), vehicle: water 91 % of control | dose: 25.0 mg/kg/injection, schedule: Q04DX003 (ip), vehicle: water 100 % of control | dose: 50.0 mg/kg/injection, schedule: Q01DX009 (ip), vehicle: water 88 % of control | dose: 50.0 mg/kg/injection, schedule: Q04DX003 (ip), vehicle: water 98 % of control | dose: 100.0 mg/kg/injection, schedule: Q04DX003 (ip), vehicle: water 98 % of control and 92 % of control

c1ccc(N=C2C3CCN(CC3)C2C(c2ccccc2)c2ccccc2)cc1 (stereo not drawn)
inactive: [13] 97 % of control | [14] 94 % of control | [15] 95 % of control

Cc1ccc(NC(=O)OCC2CC3C=CC2C3)cc1NC(=O)OCC1CC2C=CC1C2 (stereo not drawn)
inactive: [7] 87 % of control | [8] 90 % of control | [9] 90 % of control

CCCC(Cl)C(=O)Nc1cccc(OC(=O)NC)c1 (stereo not drawn)
inactive: [10] 95 % of control | [11] 93 % of control | [12] 102 % of control

O=C(SCCN1CCCC1)C(O)(c1ccccc1)C1CCCC1 (stereo not drawn)
inactive: dose: 75.0 mg/kg/injection, schedule: Q01DX001 (ip), vehicle: carboxymethylcellulose (CMC) 92 % of control | dose: 150.0 mg/kg/injection, schedule: Q01DX001 (ip), vehicle: carboxymethylcellulose (CMC) 96 % of control | dose: 300.0 mg/kg/injection, schedule: Q01DX001 (ip), vehicle: carboxymethylcellulose (CMC) 96 % of control

COc1ccc(C=Nc2ccccc2C(=O)O)cc1
inactive: dose: 100.0 mg/kg/injection, schedule: Q01DX001 (ip), vehicle: saline with Tween-80 108 % of control | dose: 200.0 mg/kg/injection, schedule: Q01DX001 (ip), vehicle: saline with Tween-80 105 % of control | dose: 400.0 mg/kg/injection, schedule: Q01DX001 (ip), vehicle: saline with Tween-80 93 % of control

C/C=C\c1ccc(OCCOC(C)=O)c(OC)c1
inactive: [16] 97 % of control | [17] 97 % of control | [18] 93 % of control

CC(=O)Nc1ccc2ccccc2c1Br
inactive: [7] 104 % of control | [13] 95 % of control | [8] 103 % of control | [14] 95 % of control | [9] 119 % of control | [15] 95 % of control

O=C1c2ccccc2S(=O)(=O)N1CCCBr
inactive: [7] 89 % of control | [8] 89 % of control | [9] 89 % of control

O=C(O)/C=C/c1ccncc1
inactive: [1] 103 % of control | [19] 93 % of control | [6] 103 % of control | [2] 105 % of control | [20] 86 % of control | dose: 200.0 mg/kg/injection, schedule: Q04DX003 (ip), vehicle: saline 92 % of control | [3] 97 % of control | [21] 93 % of control

CC(C)(C)C1CCC(C(=O)c2ccccc2)CC1 (stereo not drawn)
inactive: [10] 100 % of control | [11] 94 % of control | [12] 89 % of control

C=CC(=O)Nc1cccc(OC(=O)NC(C)(C)C)c1
inactive: [10] 101 % of control | [11] 92 % of control | [12] 87 % of control

COc1cc([N+](=O)[O-])c(/C=C2/c3cc(OC)c(OC)cc3CCN2C)cc1Br
inactive: [7] 100 % of control | [13] 90 % of control | [8] 96 % of control | [14] 96 % of control | [9] 92 % of control | [15] 95 % of control

NC(N)=NC(N)=Nc1ccccc1
inactive: [19] 101 % of control | [20] 105 % of control | [21] 97 % of control

N#CC12CCCCC(=O)N1C=Cc1ccccc12 (stereo not drawn)
inactive: [5] 96 % of control | dose: 200.0 mg/kg/injection, schedule: Q01DX001 (ip), vehicle: saline 96 % of control | dose: 400.0 mg/kg/injection, schedule: Q01DX001 (ip), vehicle: saline 93 % of control

CC(O)CN1C(=O)c2cccc3cc([N+](=O)[O-])cc(c23)C1=O (stereo not drawn)
inactive: [16] 95 % of control | [17] 103 % of control | [18] 98 % of control
